Measured values published in PubChem BioAssay (NCI).
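Exposure lasted 48 hours, with cells grown in 96-well plates and compounds tested at five concentrations. GI50 marks 50% less growth. TGI marks complete inhibition of growth.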

Columns and labels:
Assay in all cases: NCI anticancer screen, dose series, 48 h
[1] = test system: MALME-3M melanoma
[2] = test system: SNB-19 CNS
[3] = test system: NCI/ADR-RES ovarian
[4] = test system: OVCAR-5 ovarian
[5] = test system: NCI-H460 lung
[6] = test system: TK-10 renal
[7] = test system: OVCAR-3 ovarian
[8] = test system: RXF 393 renal
[9] = test system: SF-295 CNS
[10] = test system: CAKI-1 renal
[11] = test system: SR leukemia
[12] = test system: SK-MEL-2 melanoma
[13] = test system: SK-OV-3 ovarian
[14] = test system: LOX IMVI melanoma
[15] = test system: HOP-62 NSCLC
[16] = test system: CCRF-CEM leukemia
[17] = test system: HT29 colon
[18] = test system: RPMI-8226 leukemia
[19] = test system: SK-MEL-28 melanoma
[20] = test system: HCT-116 colon
[21] = test system: HCC-2998 colon
[22] = test system: MOLT-4 leukemia
[23] = test system: SN12C renal
[24] = test system: SW-620 colon
[25] = test system: SK-MEL-5 melanoma
[26] = test system: SNB-75 CNS
[27] = test system: PC-3 prostate
[28] = test system: ACHN renal
[29] = test system: 786-0 renal
[30] = test system: COLO 205 colon
[31] = test system: BT-549 breast
[32] = test system: OVCAR-4 ovarian
[33] = test system: IGROV1 ovarian
[34] = test system: M14 melanoma
[35] = test system: HS 578T breast
[36] = test system: MDA-MB-231 breast
[37] = test system: NCI-H522 lung
[38] = test system: DU-145 prostate
[39] = test system: MCF7 breast
[40] = test system: HOP-92 NSCLC
[41] = test system: HL-60(TB) leukemia
[42] = test system: K-562 leukemia
[43] = test system: OVCAR-8 ovarian
[44] = test system: UACC-62 melanoma
[45] = test system: UACC-257 melanoma
[46] = test system: EKVX NSCLC
[47] = test system: SF-268 CNS
[48] = test system: HCT-15 colon
[49] = test system: KM12 colon
[50] = test system: MDA-MB-435
[51] = test system: SF-539 CNS
[52] = test system: U251 CNS
[53] = test system: UO-31 renal
[54] = test system: A498 renal
[55] = test system: A549 NSCLC
[56] = test system: NCI-H23 lung

COc1ccc(N(CC(=O)NCCC[Te]c2ccccc2)C(=O)CCSC2=C(C)C(=O)c3ccccc3C2=O)cc1
GI50 [1]: 2250 nM
TGI [1]: 4510 nM
GI50 [2]: 2910 nM
TGI [2]: 12100 nM
GI50 [3]: 1460 nM
TGI [3]: 6160 nM
GI50 [4]: 498 nM
TGI [4]: 1880 nM
GI50 [5]: 310 nM
TGI [5]: 948 nM
GI50 [6]: 3250 nM
TGI [6]: 8010 nM
GI50 [7]: 1440 nM
TGI [7]: 3190 nM
GI50 [8]: 2070 nM
TGI [8]: 4470 nM
GI50 [9]: 232 nM
TGI [9]: 704 nM
GI50 [10]: 2250 nM
TGI [10]: 6240 nM
GI50 [11]: 498 nM
TGI [11]: > 100000 nM
GI50 [12]: 2310 nM
TGI [12]: 5490 nM
GI50 [13]: 2140 nM
TGI [13]: 4670 nM
GI50 [14]: 1500 nM
TGI [14]: 3540 nM
GI50 [15]: 582 nM
TGI [15]: 1580 nM
GI50 [16]: 508 nM
GI50 [17]: 1950 nM
TGI [17]: 7030 nM
GI50 [18]: 1020 nM
TGI [18]: 5660 nM
GI50 [19]: 2480 nM
TGI [19]: 5870 nM
GI50 [20]: 406 nM
TGI [20]: 1720 nM
GI50 [21]: 1670 nM
TGI [21]: 4440 nM
GI50 [22]: 911 nM
GI50 [23]: 840 nM
TGI [23]: 3770 nM
GI50 [24]: 2410 nM
TGI [24]: 8030 nM
GI50 [25]: 1560 nM
TGI [25]: 2960 nM
GI50 [26]: 1170 nM
TGI [26]: 7640 nM
GI50 [27]: 656 nM
TGI [27]: 2910 nM
GI50 [28]: 1570 nM
TGI [28]: 3470 nM
GI50 [29]: 2320 nM
TGI [29]: 4910 nM
GI50 [30]: 1990 nM
TGI [30]: 3640 nM
GI50 [31]: 508 nM
TGI [31]: 3430 nM
GI50 [32]: 2950 nM
TGI [32]: 11200 nM
GI50 [33]: 888 nM
TGI [33]: 2350 nM
GI50 [34]: 1170 nM
TGI [34]: 2990 nM
GI50 [35]: 1560 nM
TGI [35]: 6690 nM
GI50 [36]: 1220 nM
TGI [36]: 3460 nM
GI50 [37]: 948 nM
TGI [37]: 3590 nM
GI50 [38]: 1440 nM
TGI [38]: 3240 nM
GI50 [39]: 585 nM
TGI [39]: 11300 nM
GI50 [40]: 1720 nM
TGI [40]: 4440 nM
GI50 [41]: 2970 nM
TGI [41]: > 26100 nM
GI50 [42]: 2480 nM
TGI [42]: > 22700 nM
GI50 [43]: 722 nM
TGI [43]: 6060 nM
GI50 [44]: 1820 nM
TGI [44]: 4310 nM
GI50 [45]: 2560 nM
TGI [45]: 6510 nM
GI50 [46]: 326 nM
TGI [46]: 2980 nM
GI50 [47]: 1110 nM
TGI [47]: 3990 nM
GI50 [48]: 673 nM
TGI [48]: 3210 nM
GI50 [49]: 702 nM
TGI [49]: 2180 nM
GI50 [50]: 2670 nM
TGI [50]: 8110 nM
GI50 [51]: 1880 nM
TGI [51]: 3650 nM
GI50 [52]: 553 nM
TGI [52]: 2320 nM
GI50 [53]: 437 nM
TGI [53]: 2450 nM
GI50 [54]: 1960 nM
TGI [54]: 4610 nM
GI50 [55]: 302 nM
TGI [55]: 1070 nM
GI50 [56]: 623 nM
TGI [56]: 2830 nM
